Measured values from publication PMC2532997, “Methoxylation enhances stilbene bioactivity in Caenorhabditis elegans” (BMC Pharmacology, 2008).

System: gld-1(q485) germline tumors
Assay: Germline tumor growth assay (DAPI-stained tumor area)
Format: in vivo, Caenorhabditis elegans
Settings: 100 μM dose, four days treatment
Experimental: To assess the effects of methoxylation on antitumor activity in vivo, tumor area was measured in gld-1(q485) adults treated for four days with either resveratrol trimethylether, desoxyrhapontigenin or pterostilbene, which are methoxylated and toxic to adults, or resveratrol, which is hydroxylated and nontoxic. As controls, germline tumor area was also measured in animals treated with carrier only (ethanol) or with 5-fluoro-2'-deoxyuradine (FUDR), a thymidylate synthetase inhibitor that blocks cell proliferation. […] After four days of treatment, animals were collected and germline tumors were visualized by DAPI staining to visualize germcell nuclei. Because the level of DAPI staining was not quantitative between animals, we DAPI signal intensity was not used as a measure of tumor size. Rather, tumor size was directly measured as the area of the DAPI-stained gonad.
Resveratrol and picetannol were obtained from commercial sources (Sigma-Aldrich, Inc. and Calbiochem-Novobiochem Corp., respectively). The methoxylated stilbenes pinostilbene, desoxyrhapontigenin, 3-hydroxy-5,4'-dimethoxystilbene and pterostilbene (Figure 1) were synthesized by partial methylation of trans-resveratrol as previously reported. The methoxylated stilbenes were purified by preparative layer chromatography (Merck Silica gel 60 F254; EMD Chemicals Inc., Gibbstown, NJ) using the developing solvent chloroform:methanol (96:4) with 1% formic acid. The Rf values for pterostilbene, 3-hydroxy-5,4'-dimethoxystilbene, pinostilbene and desoxyrhapontigenin are 0.61, 0.57, 0.28, and 0.20, respectively. These stilbenes were identified from their ^1H-NMR spectra (Bruker 400 MHz; Bruker, Billerica, MA). All stilbenes were dissolved in ethanol to 25 mg/mL before use. 5-Fluoro-deoxyuracil (Sigma Chemical Co.) was dissolved to 1 mg/mL in sterile water and stored frozen at -20°C until use. For treating C. elegans adults, each compound was added in a 200 μL volume to the top of a 1-day old bacterial lawn grown on NGM medium to final concentrations as indicated. Compounds were allowed 2 hours to diffuse through the agar medium before animals were added.
The gld-1(q485) mutation causes a defect in oocyte development that results in growth of germline tumors that fill the somatic gonad, eventually leading to the animal's death. To examine the effects of the stilbenes on gld-1(q485) germline tumors, day 0 adults were placed on stilbene-containing medium in the presence of OP50 bacteria as food source. After 4 days at 20°C, animals were fixed in methanol and germcell nuclei were visualized by staining with DAPI. Images were collected with the entire animal in view using the 4× objective on a Nikon E800 microscope equipped with a Hamamatsu Orca ER CCD camera using OpenLab imaging software. NIH Image J software was used to measure germline tumor growth in treated and untreated animals. Tumor area was measured by outlining the entire DAPI-stained tumor.

## COc1ccc(/C=C/c2cc(OC)cc(OC)c2)cc1 [Resveratrol-trimethylether, resveratrol-trimethylether]
  effect on tumor size (in words): consistent reductions in tumor size
